Test results reported in patent US20240368139A1, “NOVEL MODULATORS OF EHMT1 AND EHMT2 AND THERAPEUTIC USE THEREOF” (Tango Therapeutics, Inc., priority 2021, published 2024).

Experiments:
H3K9me2 in HCT116 cells = assay: HCT116 H3K9me2 in-cell western assay; assay type: cell-based; conditions: Homo sapiens, HCT-116, 72 h, HCT116 cells, 72 hours incubation; read-out: H3K9me2 ICW IC50
In short: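 H3K9me2 signal (800 nm) was normalized to DRAQ5 DNA stain (700 nm) in an in-cell western. Cells were fixed with paraformaldehyde and probed overnight at 4° C with primary antibody.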

hERG potassium channels = hERG potassium channels (Homo sapiens, UniProt Q12809); assay: In vitro hERG assay (SyncroPatch whole-cell recording); conditions: hERG IC50, SyncroPatch, room temperature
hERG potassium channels, sequence (Q12809 whole entry): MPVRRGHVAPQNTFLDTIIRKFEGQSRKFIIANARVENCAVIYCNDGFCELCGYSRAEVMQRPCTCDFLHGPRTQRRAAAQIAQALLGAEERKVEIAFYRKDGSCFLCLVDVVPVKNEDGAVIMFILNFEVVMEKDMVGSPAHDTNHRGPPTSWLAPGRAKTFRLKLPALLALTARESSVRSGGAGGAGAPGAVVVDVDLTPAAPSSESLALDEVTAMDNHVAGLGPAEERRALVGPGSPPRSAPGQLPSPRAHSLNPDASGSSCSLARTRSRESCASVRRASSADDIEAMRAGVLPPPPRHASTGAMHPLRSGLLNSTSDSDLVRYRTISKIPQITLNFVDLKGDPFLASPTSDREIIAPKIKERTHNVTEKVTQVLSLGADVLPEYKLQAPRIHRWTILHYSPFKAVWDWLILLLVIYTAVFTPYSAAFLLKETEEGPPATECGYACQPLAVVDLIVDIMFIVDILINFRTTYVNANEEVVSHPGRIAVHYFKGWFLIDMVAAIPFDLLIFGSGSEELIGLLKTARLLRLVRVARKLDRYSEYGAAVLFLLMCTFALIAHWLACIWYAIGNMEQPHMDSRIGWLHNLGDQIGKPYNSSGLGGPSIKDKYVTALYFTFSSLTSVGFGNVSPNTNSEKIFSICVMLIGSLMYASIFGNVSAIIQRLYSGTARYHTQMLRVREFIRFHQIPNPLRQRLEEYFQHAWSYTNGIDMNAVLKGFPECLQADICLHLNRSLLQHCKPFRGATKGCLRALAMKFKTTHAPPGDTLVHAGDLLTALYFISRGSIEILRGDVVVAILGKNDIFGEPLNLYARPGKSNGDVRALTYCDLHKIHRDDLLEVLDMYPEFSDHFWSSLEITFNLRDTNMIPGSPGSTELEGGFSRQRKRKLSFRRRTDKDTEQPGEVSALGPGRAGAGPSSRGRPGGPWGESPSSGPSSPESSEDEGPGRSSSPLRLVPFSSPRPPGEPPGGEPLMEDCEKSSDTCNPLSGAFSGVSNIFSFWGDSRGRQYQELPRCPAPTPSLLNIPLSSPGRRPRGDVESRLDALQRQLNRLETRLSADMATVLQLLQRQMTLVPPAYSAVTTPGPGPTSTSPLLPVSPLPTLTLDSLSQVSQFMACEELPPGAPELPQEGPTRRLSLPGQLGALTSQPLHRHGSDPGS
Procedure: CHO cells stably expressing hERG potassium channels from Sophion Biosciences were used for this test. The cells were cultured in a humidified and air-controlled (5% CO2) incubator at 37° C.
The CHO hERG Culture Medium consisted of 500 mL Ham's F12 (Invitrogen), 50 mL FBS (HyClone), 1 mL G418/Geneticin (Invitrogen, and 1 mL Hygromycin B (Invitrogen)
The CHO cells which were at least two days after plating and more than 75% confluent would be used for experiments. Before testing, cells were harvested using TrypLE and resuspended in the physiological solution at the room temperature.
For the electrophysiological recordings the following solutions were used (Table 5). The physiological solution and external solution were prepared at least one month. The intracellular solution was prepared in batches aliquoted, and stored at 4° C. until used.
Test compounds were dissolved in 100% DMSO to obtain stock solutions for different test concentrations. Then the stock solutions were further diluted into external solution to achieve final concentrations for testing. Visual check for precipitation was conducted before testing. Final DMSO concentration in external solution was not more than 0.30% for the test compounds.
Voltage command protocol: From this holding potential of −80 mV, the voltage was first stepped to −50 mV for 80 ms for leak subtraction, and then stepped to +20 mV for 4800 ms to open hERG channels. After that, the voltage was stepped back down to −50 mV for 5000 ms, causing a “rebound” or tail current, which was measured and collected for data analysis. Finally, the voltage was stepped back to the holding potential (−80 mV, 1000 ms). This voltage command protocol was repeated every 20000 msec. This command protocol was performed continuously during the test (vehicle control and test compound).
hERG SyncroPatch assay was conducted at room temperature. The Setup, Prime Chip, Catch and Seal Cells, Amplifier Settings, Voltage and Application Protocols were established with Biomek Software (Nanion). One addition of 40 μL of the vehicle was applied, followed by 300s for a baseline period. Then the doses of the compounds were added with 40 μL. The exposure of test compound at each concentration was no less than 300s. […] Five concentrations (0.30 μM, 1.00 μM, 3.00 μM, 10.00 μM and 30.00 μM) were tested for each compound. Minimum 2 replicates per concentration were obtained.
Within each well recording, percent of control values were calculated for each test compound concentration current response based on peak current in presence of reference control (current response/peak current)×100%. The Dose-Response curves were fit to the standard Hill equation as shown below:
Where X is the logarithm of concentration, Ipost cpd/Ipre cpa is the normalized peak current amplitude, Top is 1 and Bottom is equal to 0.
Curve-fitting and IC50 calculations were performed by GraphPad Prism 5.0.

human EHMT1 982-1266 = target: T1, human EHMT1 982-1266 (Homo sapiens, UniProt Q9H9B1); assay: EHMT1 enzyme assay on histone peptide substrate (3H-SAM SPA); conditions: EHMT1 IC50, recombinant human EHMT1 982-1266, histone peptide substrate
T1 sequence (Q9H9B1 982-1266): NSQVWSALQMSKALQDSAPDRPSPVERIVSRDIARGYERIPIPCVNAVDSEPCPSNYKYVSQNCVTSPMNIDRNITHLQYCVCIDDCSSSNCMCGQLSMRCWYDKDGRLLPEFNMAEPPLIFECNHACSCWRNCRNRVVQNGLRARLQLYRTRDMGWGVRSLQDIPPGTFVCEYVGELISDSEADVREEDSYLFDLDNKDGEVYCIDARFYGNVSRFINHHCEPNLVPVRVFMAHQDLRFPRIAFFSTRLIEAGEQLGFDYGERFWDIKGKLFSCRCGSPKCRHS

human EHMT2 913-1193 = target: T2, human EHMT2 913-1193 (Homo sapiens, UniProt Q96KQ7); assay: EHMT2 enzyme assay on histone peptide substrate (3H-SAM SPA); conditions: EHMT2 IC50, recombinant human EHMT2 913-1193, histone peptide substrate
T2 sequence (Q96KQ7 913-1193): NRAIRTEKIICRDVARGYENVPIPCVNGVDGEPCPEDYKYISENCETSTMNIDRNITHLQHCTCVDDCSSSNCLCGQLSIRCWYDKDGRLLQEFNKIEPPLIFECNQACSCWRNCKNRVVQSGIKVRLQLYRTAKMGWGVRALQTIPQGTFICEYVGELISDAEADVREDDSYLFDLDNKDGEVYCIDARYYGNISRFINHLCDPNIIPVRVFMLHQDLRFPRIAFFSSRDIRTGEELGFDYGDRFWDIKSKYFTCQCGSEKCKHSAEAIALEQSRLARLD

Row | Structure (SMILES) | IC50 (H3K9me2 in HCT116 cells) [µM] | IC50 (hERG potassium channels) [µM] | IC50 (human EHMT1 982-1266) [µM] | IC50 (human EHMT2 913-1193) [µM]
1 | CNc1cc(C)nc(Nc2cc3c(c(OCCCN4CCCC4)c2)OCCC3)n1 [Compound 113, N4,6-dimethyl-N2-[8-(3-pyrrolidin-1-ylpropoxy)chroman-6-yl]pyrimidine-2,4-diamine] | 0.1 to 0.5 | < 2 | 0.1 to 0.5 | 0.5 to 2
2 | CNc1cc(C)nc(Nc2cc(OCCCN3CCCC3)c3c(c2)OCO3)n1 [Compound 118, N4,6-dimethyl-N2-[7-(3-pyrrolidin-1-ylpropoxy)-1,3-benzodioxol-5-yl]pyrimidine-2,4-diamine] | 0.1 to 0.5 | 5 to 10 | 0.1 to 0.5 | 0.5 to 2
3 | CNc1cc(C)nc(Nc2cc(OCCCN3CCCC3)c3c(c2)OCCO3)n1 [Compound 122, N4,6-dimethyl-N2-[5-(3-pyrrolidin-1-ylpropoxy)-2,3-dihydro-1,4-benzodioxin-7-yl]pyrimidine-2,4-diamine] | 0.1 to 0.5 | 2 to 5 | 0.1 to 0.5 | 0.1 to 0.5
4 | CNc1cc(C)nc(Nc2cc3c(c(C4=CCNCCC4)c2)OCCO3)n1 [Compound 130, N4,6-dimethyl-N2-[5-(2,3,4,7-tetrahydro-1H-azepin-5-yl)-2,3-dihydro-1,4-benzodioxin-7-yl]pyrimidine-2,4-diamine] | < 0.1 | 2 to 5 | < 0.1 | < 0.1
5 | CNc1cc(C)nc(Nc2cc3c(c(C4=CCN(C)CCC4)c2)OCCO3)n1 [Compound 131, N4,6-dimethyl-N2-[5-(1-methyl-2,3,4,7-tetrahydroazepin-5-yl)-2,3-dihydro-1,4-benzodioxin-7-yl]pyrimidine-2,4-diamine] | < 0.1 | 5 to 10 | < 0.1 | 0.1 to 0.5
6 | CNc1cc(C)nc(Nc2cc3c(c(C4=CCNCCC4)c2)OCO3)n1 [Compound 137, N4,6-dimethyl-N2-[7-(2,3,4,7-tetrahydro-1H-azepin-5-yl)-1,3-benzodioxol-5-yl]pyrimidine-2,4-diamine] | < 0.1 | 5 to 10 | < 0.1 | < 0.1
7 | CNc1cc(C)nc(Nc2cc3c(c(C4=CCNCCC4)c2)OC(F)(F)O3)n1 [Compound 142, N2-[2,2-difluoro-7-(2,3,4,7-tetrahydro-1H-azepin-5-yl)-1,3-benzodioxol-5-yl]-N4,6-dimethyl-pyrimidine-2,4-diamine] | 0.1 to 0.5 | < 2 | < 0.1 | < 0.1
8 | CNc1cc(C)nc(Nc2cc3c(c(C4=CCNCCC4)c2)OCCO3)c1 [Compound 144, N4,6-dimethyl-N2-[5-(2,3,4,7-tetrahydro-1H-azepin-5-yl)-2,3-dihydro-1,4-benzodioxin-7-yl]pyridine-2,4-diamine] | 0.1 to 0.5 | > 10 | 0.1 to 0.5 | 0.1 to 0.5
9 | CNc1cc(C)nc(Nc2cc3c(c([C@H]4C[C@H]5CNC[C@H]5C4)c2)OCC3)n1 [Compound 157, N2-[7-(1,2,3,3a,4,5,6,6a-octahydrocyclopenta[c]pyrrol-5-yl)-2,3-dihydrobenzofuran-5-yl]-N4,6-dimethyl-pyrimidine-2,4-diamine] | 0.1 to 0.5 | > 10 | 0.1 to 0.5 | 0.1 to 0.5
10 | CNc1cc(C)nc(Nc2cc3c(c(C4=CCNCCC4)c2Cl)OCO3)n1 [Compound 160, N2-[6-chloro-7-(2,3,4,7-tetrahydro-1H-azepin-5-yl)-1,3-benzodioxol-5-yl]-N4,6-dimethyl-pyrimidine-2,4-diamine] | < 0.1 | 5 to 10 | < 0.1 | < 0.1
11 | CNc1cc(C)nc(Nc2cc3c(c(C4=CCNCCC4)c2Cl)OCCO3)n1 [Compound 166, N2-[6-chloro-5-(2,3,4,7-tetrahydro-1H-azepin-5-yl)-2,3-dihydro-1,4-benzodioxin-7-yl]-N4,6-dimethyl-pyrimidine-2,4-diamine] | < 0.1 | < 2 | < 0.1 | < 0.1
12 | CNc1cc(C)nc(Nc2cc3c(c(C4=CCNCCC4)c2F)OCC32CC2)n1 [Compound 172] | < 0.1 | 2 to 5 | < 0.1 | < 0.1
13 | CNc1cc(C)nc(Nc2cc3c(c(C4=CCNCCC4)c2Cl)OCCC3)n1 [Compound 175] | < 0.1 | 5 to 10 | < 0.1 | < 0.1
14 | CNc1cc(C)nc(Nc2cc3c(c(C4=CCN(C)CCC4)c2Cl)OCCC3)n1 [Compound 176] | < 0.1 | 2 to 5 | < 0.1 | < 0.1
15 | CNc1cc(C)nc(Nc2cc3c(c(C4=CCNCC(O)C4)c2F)OCC3)n1 (stereo not drawn) [Compound 179, 5-[6-fluoro-5-[[4-methyl-6-(methylamino)pyrimidin-2-yl]amino]-2,3-dihydrobenzofuran-7-yl]-2,3,4,7-tetrahydro-1H-azepin-3-ol] | < 0.1 | > 10 | < 0.1 | < 0.1
16 | CNc1cc(C)nc(Nc2cc3c(c(C4=CCN(C)CC(O)C4)c2F)OCC3)n1 (stereo not drawn) [Compound 180] | < 0.1 | > 10 | < 0.1 | < 0.1
17 | CNc1cc(C)nc(Nc2c(F)c3c(c(C4=CCNCCC4)c2F)OCC3)n1 [Compound 187] | < 0.1 | > 10 | < 0.1 | 0.1 to 0.5
18 | CNc1cc(C)nc(Nc2cc3c(c(C4=CCNCCC4)c2C)OCC3)n1 [Compound 188, N4,6-dimethyl-N2-[6-methyl-7-(2,3,4,7-tetrahydro-1H-azepin-5-yl)-2,3-dihydrobenzofuran-5-yl]pyrimidine-2,4-diamine] | < 0.1 | > 10 | < 0.1 | < 0.1
19 | CNc1cc(C)nc(Nc2cc3c(c(C4=CCNCCC4)c2Cl)OCC3)n1 [Compound 189, N2-[6-chloro-7-(2,3,4,7-tetrahydro-1H-azepin-5-yl)-2,3-dihydrobenzofuran-5-yl]-N4,6-dimethyl-pyrimidine-2,4-diamine] | < 0.1 | > 10 | < 0.1 | < 0.1
20 | CNc1cc(C)nc(Nc2cc3c(c(C4=CCN(C)CCC4)c2F)OCCC3)n1 [Compound 190] | < 0.1 | 5 to 10 | < 0.1 | < 0.1
21 | CNc1cc(C)nc(Nc2cc3c(c(C4=CCNCCC4)c2F)OCCO3)n1 [Compound 191] | < 0.1 | 2 to 5 | < 0.1 | < 0.1
22 | CNc1cc(C)nc(Nc2cc3c(c(C4=CCNCCC4)c2F)OCCC3)n1 [Compound 193, N2-[7-fluoro-8-(2,3,4,7-tetrahydro-1H-azepin-5-yl)chroman-6-yl]-N4,6-dimethyl-pyrimidine-2,4-diamine] | < 0.1 | 5 to 10 | < 0.1 | < 0.1
23 | CCN1CC=C(c2c(F)c(Nc3nc(C)cc(NC)n3)cc3c2OCC3)CCC1 [Compound 201] | < 0.1 | 5 to 10 | < 0.1 | < 0.1
24 | COCCNc1cc(C)nc(Nc2cc3c(c(C4=CCNCCC4)c2F)OCC3)n1 [Compound 289, N2-[6-fluoro-7-(2,3,4,7-tetrahydro-1H-azepin-5-yl)-2,3-dihydrobenzofuran-5-yl]-N4-(2-methoxyethyl)-6-methyl-pyrimidine-2,4-diamine] | < 0.1 | > 10 | < 0.1 | < 0.1
